Common to all, as to format: cell-based
One test deals with OVTOKO cells. Kind of test: Cell growth inhibitory effect on human ovarian cancer cell line (cell counting kit 8, 6 days). Conditions: 144 h, 6 days incubation. A digest of the protocol:
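Cells in RPMI1640 with 10% FBS plated at 500 cells/well (OVTOKO 250/well) and cultured one day at 37° C, 5% CO2. Serially diluted compound added (final DMSO 0.1%) for 6 days; viable cells measured at addition and day 6 with CCK-8, absorbance 450 nm. GI50 derived from growth inhibition rate.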
A general note: Tetrazolium dyes change colour on reduction, which living cells bring about.

A further test concerns NCI-H226 cells. Kind of test: Cell growth inhibitory effect on human mesothelioma cell line (cell counting kit 8, 6 days). Conditions: NCI-H226, 144 h. The text has this:
(§1) NCI-H226 cells, a human mesothelioma cell line (ATCC, CRL-5826), NCI-H322 cells, a human lung cancer cell line (the European Collection of Authenticated Cell Cultures, 95111734), OUTOKO cells, a human ovarian cancer cell line (JCRB cell bank, KRB1048) and […] were each subcultured by keeping the cell density under 80% in a RPMI1640 culture medium with 10% fetal bovine serum (FBS). NCI-H226 cells, NCI-H322 cells and SSP-25 cells were each suspended in the RPMI1640 culture medium mentioned above, and plated to a 96-well flat-bottom plate at 500 cells/well in each well, and incubated at 37° C. in an incubator with 5% CO2 for one day. After the incubation, the evaluation of cell growth inhibitory activity was started. OVTOKO cells were suspended in the RPMI1640 culture medium mentioned above, and plated to a 96-well flat-bottom plate at 250 cells/well in each well, and incubated it at 37° C. in an incubator with 5% CO2 for one day. After the incubation, the evaluation of the cell growth inhibitory activity was started. The next day, a test compound was serially diluted to 5 times of its final concentration in the RPM11640 culture medium mentioned above, and the diluted solution was added to each well. In this case, the final concentration of DMSO in each well was adjusted to 0.1%. After the test compound was added, cells were incubated at 37° C. in an incubator with 5% CO2 for 6 days. At the addition of the test compound and 6 days after the addition, the cell counting measurement was performed using a cell counting kit 8 (made by DOJINDO) according to a protocol equivalent to DOJINDO's recommendation. A reagent contained in the kit was added to each plate and color reaction was performed for 2 or 3 hours at 37° C. in an incubator with 5% CO2. After the reaction, an absorbance at wavelength of 450 nm was measured using a microplate reader. A growth inhibition rate was calculated according to the following formula, from which the concentration of a test compound at which cell growth was inhibited by 50% (GI50 value) was determined.

For a further test, the system named is NCI-H322 cells. Kind of test: Cell growth inhibitory effect on human lung cancer cell line (cell counting kit 8, 6 days). Conditions: 144 h; human lung cancer cell line NCI-H322, 6 days incubation.
From the text: as §1

The next test has as its system HuH28 cells. Put plainly: Cell growth inhibitory effect on human liver cancer cell line (cell counting kit 8, 6 days). As to conditions: 144 h; human liver cancer cell line HuH28, 6 days incubation.
From the text: as §1

Where only a bound is given, the exact number is not on record here.

As for `C=CC(=O)NCc1ccc(Oc2ccc(C(F)(F)F)nc2)c2sc(C)nc12` [Compound 287, N-{(2-Methyl-7-[{6-(trifluoromethyl)pyridin-3-yl}oxy]benzo[d]thiazol-4-yl)methyl}acrylamide], the GI50 in the test on OVTOKO cells was no more than 3000 nM; with NCI-H226 cells, less than 100 nM; with NCI-H322 cells it was less than 1000 nM; with HuH28 cells it was less than 3000 nM.
In the same order, the values of `C=CC(=O)N[C@@H]1CC[C@H](Oc2ccc(C(F)(F)F)cc2)c2nc(OC)ccc21` (relative stereo) [Compound 179, cis-N-[2-Methoxy-8-{4-(trifluoromethyl)phenoxy}-5,6,7,8-tetrahydroquinolin-5-yl]acrylamide] are no more than 3000 nM, less than 100 nM, less than 1000 nM and less than 3000 nM.
The corresponding values for `C=CC(=O)N[C@@H]1CC[C@H](Oc2ccc(C(F)(F)F)cn2)c2nc(Cl)ccc21` (relative stereo) [Compound 189, cis-N-(2-Chloro-8-[{5-(trifluoromethyl)pyridin-2-yl}oxy]-5,6,7,8-tetrahydroquinolin-5-yl)acrylamide] are no more than 3000 nM, less than 100 nM, less than 1000 nM and less than 3000 nM.
The corresponding values for `C=CC(=O)NCc1ccc(Oc2ccc(C(F)(F)F)cc2)c2ncoc12` [Compound 247, N-([4-{4-(Trifluoromethyl)phenoxy}benzo[d]oxazol-7-yl]methyl)acrylamide] are no more than 3000 nM, less than 100 nM, less than 1000 nM and less than 3000 nM.
On to `C=CC(=O)NCc1ccc(C(O)c2ccc(C(F)(F)F)cc2)c2nc(C)oc12` (stereo not shown) [Compound 268, N-{(4-[Hydroxy{4-(trifluoromethyl)phenyl}methyl]-2-methylbenzo[d]oxazol-7-yl)methyl}acrylamide], for which the GI50 with OVTOKO cells was no more than 3000 nM; with NCI-H226 cells, 100 to 1000 nM; in the test on NCI-H322 cells it was less than 1000 nM; with HuH28 cells, less than 3000 nM.
In the same order, the values of `C=CC(=O)NCc1ccc(OCc2ccccc2)c2nc(C)oc12` [Compound 282, N-[{4-(Benzyloxy)-2-methylbenzo[d]oxazol-7-yl}methyl]acrylamide] are no more than 3000 nM, less than 100 nM, less than 1000 nM and less than 3000 nM.
The corresponding values for `C=CC(=O)NCc1ccc(Oc2ccc(C(F)(F)F)cn2)c2nc(C)oc12` [Compound 250, N-{(2-Methyl-4-[{5-(trifluoromethyl)pyridin-2-yl}oxy]benzo[d]oxazol-7-yl)methyl}acrylamide] are no more than 3000 nM, less than 100 nM, less than 1000 nM and less than 3000 nM.
In the same order, the values of `C=CC(=O)NC1CCOc2c1ccc(Oc1ccc(C(F)(F)F)nc1)c2OC` (stereo not shown) [Compound 163, N-(8-Methoxy-7-[{6-(trifluoromethyl)pyridin-3-yl}oxy]chroman-4-yl)acrylamide] are no more than 3000 nM, less than 100 nM, less than 1000 nM and less than 3000 nM.
For `C=CC(=O)NCc1ccc(Oc2ccc(C(F)(F)F)cc2)c2nc(C)oc12` [Compound 243, N-([2-Methyl-4-{4-(trifluoromethyl)phenoxy}benzo[d]oxazol-7-yl]methyl) acrylamide], the GI50 is no more than 3000 nM in the test with OVTOKO cells, less than 100 nM with NCI-H226 cells, less than 1000 nM in the test on NCI-H322 cells and less than 3000 nM with HuH28 cells.
In the same order, the values of `C=CC(=O)NCc1ccc(Oc2ccc(N(C)C)cc2)c2nc(C)oc12` [Compound 275, N-([4-{4-(Dimethylamino)phenoxy}-2-methylbenzo[d]oxazol-7-yl]methyl)acrylamide] are no more than 3000 nM, 100 to 1000 nM, less than 1000 nM and less than 3000 nM.
In the same order, the values of `C=CC(=O)N[C@@H]1CC[C@H](Oc2ccc(C(F)(F)F)cc2)c2nc(C3CC3)ccc21` (relative stereo) [Compound 185, cis-N-[2-Cyclopropyl-8-{4-(trifluoromethyl)phenoxy}-5,6,7,8-tetrahydroquinolin-5-yl]acrylamide] are no more than 3000 nM, less than 100 nM, less than 1000 nM and less than 3000 nM.
In the same order, the values of `C=CC(=O)NCc1ccc(Nc2ccc(C(F)(F)F)cc2)c2nc(C)oc12` [Compound 270, N-{(2-Methyl-4-[{4-(trifluoromethyl)phenyl}amino]benzo[d]oxazol-7-yl)methyl}acrylamide] are no more than 3000 nM, less than 100 nM, less than 1000 nM and less than 3000 nM.
As to `C=CC(=O)NCc1ccc(Oc2ccc(Cl)cc2)c2nc(C)oc12` [Compound 281, N-[{4-(4-Chlorophenoxy]-2-methylbenzo[d]oxazol-7-yl}methyl)acrylamide], the concentration for 50% growth inhibition (GI50) with OVTOKO cells is no more than 3000 nM; in the test on NCI-H226 cells it was less than 100 nM; with NCI-H322 cells, less than 1000 nM; with HuH28 cells, less than 3000 nM.
The corresponding values for `C=CC(=O)NCc1ccc(Oc2cccc(C(F)(F)F)c2)c2nc(C)oc12` [Compound 279, N-([2-Methyl-4-{3-(trifluoromethyl)phenoxy}benzo[d]oxazol-7-yl]methyl) acrylamide] are no more than 3000 nM, less than 100 nM, less than 1000 nM and less than 3000 nM.
The corresponding values for `C=CC(=O)NCc1ccc(Oc2ccc(C(F)(F)F)nc2)c2nc(C)oc12` [Compound 249, N-{(2-Methyl-4-[{6-(trifluoromethyl)pyridin-3-yl}oxy]benzo[d]oxazol-7-yl)methyl}acrylamide] are no more than 3000 nM, less than 100 nM, less than 1000 nM and less than 3000 nM.
The corresponding values for `C=CC(=O)Nc1cncc(OCC2CCC(F)(F)CC2)c1` [Compound 192] are no more than 3000 nM, 100 to 1000 nM, less than 1000 nM and less than 3000 nM.
With `C=CC(=O)NCc1ccc(Oc2ccc(C(F)(F)F)cn2)c2sc(C)nc12` [Compound 288, N-{(2-Methyl-7-[{5-(trifluoromethyl)pyridin-2-yl}oxy]benzo[d]thiazol-4-yl)methyl}acrylamide], the GI50 was no more than 3000 nM in the test with OVTOKO cells, less than 100 nM in the test on NCI-H226 cells, less than 1000 nM in the test on NCI-H322 cells and less than 3000 nM in the test with HuH28 cells.
In the same order, the values of `C=CC(=O)NCc1ccc(Oc2ccc(C(F)(F)F)cn2)c2oc(C)nc12` [Compound 284, N-{(2-Methyl-7-[{5-(trifluoromethyl)pyridin-2-yl}oxy]benzo[d]oxazol-4-yl)methyl}acrylamide] are no more than 3000 nM, less than 100 nM, less than 1000 nM and less than 3000 nM.
In the same order, the values of `C=CC(=O)NCc1ccc(Oc2ccc(C(F)(F)F)cc2)c2nc(CC)oc12` [Compound 244, N-([2-Ethyl-4-{4-(trifluoromethyl)phenoxy}benzo[d]oxazol-7-yl]methyl)acrylamide] are no more than 3000 nM, less than 100 nM, less than 1000 nM and less than 3000 nM.
Take `C=CC(=O)NC1CC[C@H](Oc2cccc(Cl)c2)c2ncccc21` (stereo in doubt) [Compound 68, cis-N-{8-(3-Chlorophenoxy)-5,6,7,8-tetrahydroquinolin-5-yl}acrylamide]: the GI50 is no more than 3000 nM in the test on OVTOKO cells, less than 100 nM with NCI-H226 cells, less than 1000 nM in the test with NCI-H322 cells and less than 3000 nM in the test on HuH28 cells.
The corresponding values for `C=CC(=O)NCc1ccc(Oc2ccc(C(F)(F)F)c(F)c2)c2nc(C)oc12` [Compound 277, N-([4-{3-Fluoro-4-(trifluoromethyl)phenoxy}-2-methylbenzo[d]oxazol-7-yl]methyl)acrylamide] are no more than 3000 nM, less than 100 nM, less than 1000 nM and less than 3000 nM.
The corresponding values for `C=CC(=O)NCc1ccc(Sc2ccc(C(F)(F)F)cc2)c2nc(C)oc12` [Compound 272, N-{(2-Methyl-4-[{4-(trifluoromethyl)phenyl}thio]benzo[d]oxazol-7-yl)methyl}acrylamide] are no more than 3000 nM, less than 100 nM, less than 1000 nM and less than 3000 nM.

Usually GI50 stands for the concentration that inhibits growth by half. High values mean lower sensitivity of the cells, low ones greater sensitivity of the cells.

These data come from patent US11447471B2, “α,β-unsaturated amide compound” (KYOWA KIRIN CO., LTD., priority 2017, dated 2022).
